Experimental data as given in the METLIN SMRT retention time set (Domingo-Almenara et al. 2019).

Test: gradient 5% acetonitrile 3 min, to 50% in 2 min, to 85% in 15 min, held 3 min, 100 µL/min
Settings: column: Zorbax Extend-C18 2.1 x 50 mm; eluents: water / acetonitrile, 0.1% formic acid
Method in brief: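 Values are retention times taken from adduct peaks that software picked and an analyst inspected. The pure standards were run as mixtures of ~100 molecules on HPLC linked to a quadrupole time-of-flight mass spectrometer, in positive and negative ionization mode. A Zorbax Extend-C18 column (2.1 × 50 mm, 1.8 μm) was used at 100 μL/min with water and acetonitrile, each including 0.1% formic acid.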

SMILES | RP-LC retention time [s]
Cc1ccc(C(=O)N2CCC3(C2)C(=O)N(C)c2ccccc23)cc1 (centres undefined) | 792
CCCc1nc(-c2c(C)cc(C)nc2NC(=O)c2ccccc2Br)no1 | 927
CCN1CCN(CCNC(=O)c2c(N3CCCC3=O)c3cc(OC)ccc3n2C)CC1 | 592
O=C(NCc1ccccc1Cl)C1CCCN(S(=O)(=O)c2c[nH]c(C(=O)N3CCCC3)c2)C1 (centres undefined) | 790
Cn1nc(N2CCC(NC(=O)c3ccc[nH]c3=O)C2)ccc1=O (centres undefined) | 575
O=C(Cc1cccs1)N1CCc2c([nH]c3ccccc23)C1c1ccc(F)cc1 (centres undefined) | 1130
Cc1noc(C2CN(C(=O)Nc3c(C)cccc3C)CC23CCOCC3)n1 (centres undefined) | 693
CN1[C@H]2C[C@H](OC(=O)[C@H](CO)c3ccccc3)C[C@@H]1[C@@H](O)C2 | 596
CC(NC(=O)Cc1cccn1-c1ccc(F)cc1)c1ccccc1 (centres undefined) | 962
Cc1ccccc1NC(=O)C1C(=O)N(CCO)C2(C)CC1c1ccccc1O2 (centres undefined) | 653
CC(=O)Nc1ccc(CCc2nc3ccc(C(=O)NC(C)CCc4ccccc4)cc3[nH]2)cc1 (centres undefined) | 682
COc1cccc(-c2noc(C3CCCN3C(=O)Nc3ccc(OC)cc3C)n2)c1 (centres undefined) | 900
CCOc1ccc(-c2ccc(OCCNS(=O)(=O)c3ccccc3Cl)nn2)cc1 | 891
Cc1nn(-c2ccccc2)c(C)c1S(=O)(=O)N1CCC(C(=O)NCCN2CCCCCC2)CC1 | 672
CC(C)CCNC(=O)C1(C)CN(S(=O)(=O)c2ccccc2)CC(=O)N1Cc1ccc(Cl)cc1 (centres undefined) | 1040
COc1ccccc1-c1nc2nccc(-c3ccccc3)n2n1 | 862
Cn1cc(CCN2CCC(C(=O)NCC3CCCCC3)CC2)c2cccnc21 | 619
CCOC(=O)C1CCN(CC(O)COC2CCCC2)CC1 (centres undefined) | 562
Cc1cnc(C(=O)N2CCC(N3C(=O)C4(CCCC4)C3c3scnc3C)CC2)cn1 (centres undefined) | 681
COCCc1noc(C2CN(C(=O)Cn3ccnc3)C2)n1 | 580
COc1cc(OC)c(NC(=O)N2CCc3nc(-c4ccc(F)cc4)ncc3C2)cc1Cl | 1020
CC1CCCN(C(=O)c2cn(-c3ccc(-c4nc(C(C)(C)C)no4)cn3)cn2)C1 (centres undefined) | 1080
O=c1ccc(S(=O)(=O)N2CCOCC2)cn1Cc1cccc(Cl)c1 | 809

SMILES | RP-LC retention time [s]
CCCNS(=O)(=O)c1cc(-c2[nH]ncc2C(=O)N2CCOCC2)oc1C | 662
COC(=O)c1cnc2nc(C)ccc2c1Nc1ccc(Cl)cc1 | 705
O=C(Nc1ccccc1C(F)(F)F)NC1CCN(c2ccccc2)C1=O (centres undefined) | 841
O=C(NCCOc1ccccc1)C(=O)c1c[nH]c2ccccc12 | 886
CCCN1C(=O)c2c(C(=O)NCc3ccccc3F)ncn2CC1(C)C(=O)NC1CCCC1 (centres undefined) | 787
COCCNC(=O)CN1C(=O)C2CCCCN2c2ccc(C(=O)N3CCCC3)cc21 (centres undefined) | 653
CSc1ccc(-c2noc(Cn3ncn4nc(-c5ccc(C)cc5C)cc4c3=O)n2)cc1 | 1270
COc1ccc(-c2noc(Cn3ccn(-c4cc(C)cc(C)c4)c(=O)c3=O)n2)cc1 | 870
COc1ccc(CN(C(=O)COc2c(C)cccc2C)C2CCS(=O)(=O)C2)cc1OC (centres undefined) | 847
Cc1cc(C)c2c(n1)SCC(=O)N2CC(=O)NCCCN(C)Cc1ccccc1 | 587
CO[C@H]1C(=O)N(C2CCN(S(=O)(=O)c3cccs3)CC2)[C@H]1c1ccncc1 | 619
CCOc1ccc(-c2csc3c(=O)n(Cc4cccc(Br)c4)cnc23)cc1OCC | 1210
CC(=O)Cc1nsc(NC(=O)c2ccc(-c3cccc(Cl)c3)o2)n1 | 866
CN1c2cc(F)ccc2C(=O)NC12CCN(C(=O)Nc1ccccc1)CC2 | 695
COc1ccc(-c2nnc(-c3ccc(Cl)c(S(=O)(=O)N(C)C)c3)o2)cc1OC | 904
O=C(NCCN1CCCC1)C1CCCN(c2ncnc3c2nc2n3CCCCC2)C1 (centres undefined) | 591
COCc1nncn1C1CCN(C(=O)c2cc(F)cc(F)c2)CC1 | 628
CCc1noc(-c2ccnc(-n3cnc(C(=O)NCC(C)C)c3)c2)n1 | 983
Cc1cc(C)cc(N2C(=O)CN(CC(C)C)[C@H]3CS(=O)(=O)C[C@H]32)c1 | 619
Cc1ccc(F)cc1S(=O)(=O)Nc1cccn2c(C3CCC3)nnc12 | 817
CCOC(=O)c1[nH]c(C)c(CCC(=O)N2CCC(C(=O)NC3CCCCC3)CC2)c1C | 778
CCNC(=O)c1sc(-c2ccc(C)cc2)nc1C | 850
Cc1noc(C)c1S(=O)(=O)N1CCC(Cc2nc(-c3ccncc3)n[nH]2)C1 (centres undefined) | 619

Results, then the molecule that gave them:

RP-LC retention time [s] | SMILES
1010 | CC(=O)Nc1cccc(-c2nc(-c3ccc4c(c3)nnn4C3CCCC3)no2)c1
623 | Cc1ccc(-c2ccc(N3CCCC(C(=O)N4CCN(C(C)C)CC4)C3)nn2)cc1C (centres undefined)
657 | CN(C)CCN1CC(C(=O)N2CCC(c3c[nH]c4ccccc34)(c3c[nH]c4ccccc34)CC2)CC1=O (centres undefined)
781 | Cn1nc(C(=O)N2CCC(Nc3cccnc3)C2)c2ccccc21 (centres undefined)
841 | CCc1noc(NC(C)=O)c1-c1ccc(OC)c(S(=O)(=O)Nc2ccc(Cl)cc2C)c1
693 | Cc1nc(-c2ccc(C(=O)NC(C)C)cc2)no1
753 | O=C(Cc1nnc(-c2cnccn2)o1)Nc1ccc(Cl)cc1Cl
763 | Cc1c(C(=O)N(C)C)sc2nc(-c3ccccc3)c(NC(C)(C)C)n12
702 | CCc1nc(-c2csc(S(=O)(=O)N3CCC(C(=O)NCc4ccccc4)CC3)c2)no1
617 | Cn1c(CCNC(=O)c2ccc(F)c(F)c2)nc2cccnc21
1240 | COc1ccccc1-c1nc(Cn2nnc(-c3nc(-c4cccc(Cl)c4)no3)c2C)c(C)o1
583 | Cc1ccn(CC(C)NC(=O)c2cn3ccccc3n2)n1 (centres undefined)
558 | CNC(=O)c1cc(NC(=O)C2CCC2)cc2nc(C)ccc12
779 | Cc1ccnc(Nc2nc(C)c(C(=O)N3CCC(C)CC3)s2)c1
808 | O=C(c1cc(S(=O)(=O)N2CCCC(C(=O)N3CCc4ccccc4C3)C2)c[nH]1)N1CCCC1 (centres undefined)
611 | Cc1c2cnn(-c3ccccc3)c(=O)c2c(C)n1CCCC(=O)N1CCN(c2ccccn2)CC1
682 | CCNc1nc(C)cc(N2CCN(C(=O)Nc3ccc(Cl)cc3)CC2)n1
607 | Cc1cccc(CC(=O)NCCSc2ncc(-c3ccccc3)[nH]2)c1
655 | Cc1noc(C)c1CCC(=O)N1CCCCC1c1nncn1CC1CC1 (centres undefined)
873 | O=C(Cn1nc2c3cc(-c4ccccc4)nn3ccn2c1=O)NC1CCCCC1
699 | CCCNC(=O)C1CCCN(c2ccc(=O)n(-c3cccc(F)c3)n2)C1 (centres undefined)
825 | Cc1ccc(N2C(=O)CN(CCc3cccs3)[C@H]3CS(=O)(=O)C[C@H]32)cc1

RP-LC retention time [s] | SMILES
735 | Cc1ccc(NC(=O)Cn2c(C)nc3onc(C)c3c2=O)cc1F
892 | N#C/C(=C\c1ccc[nH]1)C(=O)c1ccccc1
690 | CCCNC(=O)C1CCCN(c2ccc(SCC(=O)Nc3ccccc3C(F)(F)F)nn2)C1 (centres undefined)
724 | CCc1noc(-c2cnc3nc(C)ccc3c2NCc2ccccc2OC)n1
608 | Cn1c(Cn2c(=O)sc3ccccc32)nnc1SCC(=O)NCC1CCCO1 (centres undefined)
701 | Cc1ccccc1Nc1c(-c2ccccc2O)nc2c(C)cccn12
610 | COC(=O)c1c(C)[nH]c(C(=O)N2CCCC(C(=O)NCCN3CCCCCC3)C2)c1C (centres undefined)
987 | Cc1ccc(NC(=O)Cn2cc3c(n2)CCC(C)C3)c(C)c1 (centres undefined)
1100 | Cc1ccc(N2CC(c3nc(-c4ccc5c(c4)nc(C)c(=O)n5C4CCCC4)no3)CC2=O)cc1 (centres undefined)
872 | O=C(COc1ccccc1F)NC1CCCC(OC(=O)Nc2ccccc2)C1 (centres undefined)
661 | Cc1ccc(C(=O)N2CCc3c(c(C(=O)N4CCCC(C(=O)NC5CC5)C4)nn3C)C2)cc1 (centres undefined)
603 | O=C1CC(NC(=O)c2cnn(-c3ccccc3)n2)CN1 (centres undefined)
671 | CN1CCN(C(=O)Cn2c(-c3cccs3)cc3ccccc32)CC1
1030 | CCc1ccc(NC(=O)CSC2=C(C#N)C3(CCCCC3)C(C#N)C(=O)N2)cc1 (centres undefined)
1120 | CCN(CC)S(=O)(=O)c1cccc(-c2nnc(-c3cccc(C)c3)o2)c1
989 | Nc1c(C(=O)Nc2cc(F)ccc2F)nnn1-c1ccccc1
897 | O=C(Nc1ccc(F)cc1F)C1CCCN(S(=O)(=O)c2c[nH]c(C(=O)N3CCCCCC3)c2)C1 (centres undefined)
800 | COc1ccc(S(=O)(=O)NC2CCN(c3ccc(=O)n(CC4CC4)n3)C2)cc1Cl (centres undefined)
699 | O=C(NCCc1csc(C2CCN(C(=O)c3cc(F)ccc3F)CC2)n1)C1CC1
1110 | CCCCN(C)S(=O)(=O)c1ccccc1-c1nc(-c2ccc(F)cc2)no1
588 | CCCNC(=O)N1CCC(CCOc2cccnc2)CC1
